This passage reports CC50, IC50 and melting point results from PMC6273578, “Design, Synthesis and Biological Evaluation of Benzohydrazide Derivatives Containing Dihydropyrazoles as Potential EGFR Kinase Inhibitors” (Molecules, 2016).

For data set [1], the system named is 293T human kidney epithelial cells. The experiment in a line: Cytotoxicity test (MTT) on 293T cells. The settings on record: read-out: median cytotoxic concentration CC50; 293T cells, MTT assay, 24 h. As for the experimental part:
(§1) The cytotoxic activity in vitro was measured by the colorimetric MTT assay. […] For the cytotoxicity assay, 20 μL of MTT (5 mg/mL) was added per well 4 h before the end of the incubation. After removing the supernatant, 200 μL DMSO was added to dissolve the formazan crystals. The absorbance at λ 570 nm was read on an LX300 Epson Diagnostic microplate reader, untreated cells were used as negative controls.

The test system of the next data set is A549 cells. The experiment in a line: MTT antiproliferative assay, A549. It counts as cell-based, human. The settings on record: read-out: In vitro antiproliferative activity IC50, A549. As for the experimental part: (§2) IC50 values of the test compounds against A549, MCF-7, Hela and HepG2 cells were obtained from State Key Laboratory of Pharmaceutical Biotechnology, Nanjing University, and were determined by a standard (MTT)-based colorimetric assay (Beyotime Inst. Biotech., Nanjing, China). Tumor cell lines were grown to mid-log phase and then diluted to […] making sure they were seeded in 96-well plates (Philas, Nanjing, China) at a density of 5 × 10^3–1 × 10^4 cells per well. The outer wells containing 1 × PBS solution of the plate are not used for the assay to avoid the possibility of edge effects. The plate was incubated at 37 °C in a 5% CO2 incubator in DMEM containing 10% fetal bovine serum (FBS, Gibco, Waltham, MA, USA) for 24 h. Then, we added a 100-μL series concentration of drug-containing medium into the wells to maintain the final concentration of drug as 100, 10, 1 and 0.1 μmol/L. After 12 h, cell survival was determined by the addition of a MTT (3-(4,5-dimethylthiazol-2-yl)-2,5-diphenyl trtrazolium bromide) solution (10 μL of 5 mg/mL MTT in 1 × PBS). We waited for 4 h proliferation, discarded the medium and quickly added 150 μL DMSO per well, shaking the plates well for 10 min to ensure complete dissolution. Optical absorbance was measured at 570 nm on a microplate reader (Bio-Rad, Hercules, CA, USA). Survival ratios are expressed in percentages with respect to untreated cells. The experiments were replicated at least three times to verify the methodology reproducibility when using the above-mentioned conditions.

Another data set deals with HepG2 cells. The data set can be described thus: MTT antiproliferative assay, HepG2. The settings on record: read-out: In vitro antiproliferative activity IC50, HepG2. The format is cell-based, human. As for the experimental part:
as §2

A further data set concerns MCF-7 cells. The experiment in a line: MTT antiproliferative assay, MCF-7. The format is cell-based, human. As for the experimental part:
as §2

The target in data set [2] is epidermal growth factor receptor (EGFR) (Homo sapiens, UniProt P00533). The experiment in a line: EGFR kinase inhibition, solid-phase ELISA assay.
Procedure: All these newly synthesized compounds were evaluated for their inhibitory activities against EGFR kinases using a solid-phase ELISA assay.
EGFR tyrosine kinase activity was determined by an enzyme linked-immunosorbent assay (ELISA) in 96-well plates precoated in a 10 mL reaction volume including 4 mL diluted test compounds, 4 mL substrate and 2 mL ATP. […] The plates were then aspirated and washed twice with 200 mL 0.9% (w/v) NaCl, and incorporation of Pi was determined with an LX300 Epson Diagnostic microplate reader. […] The experiments were replicated at least three times to verify the methodology reproducibility when using the above-mentioned conditions.
The next data set has as its system HeLa cells. The data set can be described thus: MTT antiproliferative assay, HeLa. The settings on record: read-out: In vitro antiproliferative activity IC50, HeLa. The format is cell-based, human. As for the experimental part:
as §2

Data set [3] is described as follows: Cytotoxicity test (MTT) on 293T cells. To be noted: human, 293T human kidney epithelial cells. As for the experimental part: as §1
The mark [4] stands for this setting: read-out: In vitro antiproliferative activity IC50, MCF-7.
Where [5] appears, read: read-out: Inhibition activity IC50 against EGFR, solid-phase ELISA assay.
The mark [6] stands for this setting: Homo sapiens, MCF7, read-out: In vitro antiproliferative activity IC50, MCF-7.

Like-named read-outs stand apart in the source and are kept apart here. Where only a bound is given, the exact number is not on record here.

epidermal growth factor receptor (EGFR), sequence (P00533 25-1210): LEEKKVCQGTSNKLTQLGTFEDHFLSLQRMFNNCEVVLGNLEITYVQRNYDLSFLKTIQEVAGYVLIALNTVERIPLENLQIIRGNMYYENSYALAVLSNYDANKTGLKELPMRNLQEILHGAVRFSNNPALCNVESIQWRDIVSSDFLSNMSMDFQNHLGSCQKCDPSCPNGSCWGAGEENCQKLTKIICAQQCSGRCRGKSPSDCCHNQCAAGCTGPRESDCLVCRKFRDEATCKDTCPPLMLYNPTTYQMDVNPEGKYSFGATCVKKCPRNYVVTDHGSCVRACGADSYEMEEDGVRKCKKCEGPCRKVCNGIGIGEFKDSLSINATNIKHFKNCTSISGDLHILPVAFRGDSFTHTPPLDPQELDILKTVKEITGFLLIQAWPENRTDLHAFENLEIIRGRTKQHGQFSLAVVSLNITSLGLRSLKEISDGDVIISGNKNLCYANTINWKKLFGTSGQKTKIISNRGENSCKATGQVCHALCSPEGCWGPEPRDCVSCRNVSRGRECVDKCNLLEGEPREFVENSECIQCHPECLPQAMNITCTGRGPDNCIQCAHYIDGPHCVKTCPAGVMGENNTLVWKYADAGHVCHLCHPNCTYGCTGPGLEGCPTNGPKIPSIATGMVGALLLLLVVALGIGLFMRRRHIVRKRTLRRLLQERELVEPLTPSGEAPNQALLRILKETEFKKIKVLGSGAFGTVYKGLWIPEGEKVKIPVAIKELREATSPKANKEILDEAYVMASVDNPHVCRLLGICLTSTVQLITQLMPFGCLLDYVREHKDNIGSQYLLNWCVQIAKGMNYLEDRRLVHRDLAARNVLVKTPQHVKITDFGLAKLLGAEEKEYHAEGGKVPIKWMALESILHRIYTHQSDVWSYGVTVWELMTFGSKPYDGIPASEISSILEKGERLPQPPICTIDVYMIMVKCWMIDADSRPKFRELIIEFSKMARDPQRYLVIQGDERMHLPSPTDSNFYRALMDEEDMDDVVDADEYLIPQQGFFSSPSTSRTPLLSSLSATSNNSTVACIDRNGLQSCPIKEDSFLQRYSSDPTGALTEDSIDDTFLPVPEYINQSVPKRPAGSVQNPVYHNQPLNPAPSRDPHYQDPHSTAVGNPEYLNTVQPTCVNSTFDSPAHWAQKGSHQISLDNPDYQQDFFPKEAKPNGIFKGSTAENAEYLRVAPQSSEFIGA

In the case of `COc1ccc(/C=N/NC(=O)c2ccc(N3N=C(c4ccccc4)CC3c3ccc4ccccc4c3)cc2)cc1` (stereo not drawn) [Compound H17, (E)-N′-(4-Methoxybenzylidene)-4-(5-(naphthalen-2-yl)-3-phenyl-4,5-dihydro-1H-pyrazol-1-yl)benzo-hydrazide], the CC50 in data set [1] was found to be 94.2 µM. The IC50 came out at 13.3 µM in the data set with A549 cells; 26.7 µM in the data set on HepG2 cells; 18.4 µM in the data set on MCF-7 cells (setting [4]); 7.89 µM in data set [2] (setting [5]); 20.7 µM with HeLa cells.

Take “(E)-4-(3-(4-Ethylphenyl)-5-(naphthalen-2-yl)-4,5-dihydro-1H-pyrazol-1-yl)-N′-(3-methoxybenzylidene)-benzohydrazide [Compound H5]”: in data set [1], the CC50 was determined as 92.5 µM. Also, the 50% inhibitory concentration (IC50) in the data set with A549 cells was found to be 5.49 µM; in the data set with HepG2 cells it was 6.16 µM; in the data set with MCF-7 cells (setting [4]), 7.72 µM; in the data set on HeLa cells, 8.71 µM.

For the molecule `COc1cccc(/C=N/NC(=O)c2ccc(N3N=C(c4ccccc4C)CC3c3ccc4ccccc4c3)cc2)c1` (stereo not drawn) [Compound H2, (E)-N′-(3-Methoxybenzylidene)-4-(5-(naphthalen-2-yl)-3-(o-tolyl)-4,5-dihydro-1H-pyrazol-1-yl)benzo-hydrazide], the CC50 in data set [1] was determined as 87.5 µM. In addition, the half-maximal inhibitory concentration (IC50) with A549 cells is 1.41 µM; with HepG2 cells, 0.67 µM; in the data set with MCF-7 cells (setting [4]) it was 1.52 µM; in data set [2] (setting [5]), 0.65 µM; with HeLa cells, 0.6 µM.

Turning to “(E)-N′-(4-Methoxybenzylidene)-4-(3-(4-methoxyphenyl)-5-(naphthalen-2-yl)-4,5-dihydro-1H-pyrazol-1-yl)-benzohydrazide [Compound H22]”, in data set [1], the CC50 was 84.7 µM. Besides, the IC50 with A549 cells stood at 7.12 µM; with HepG2 cells, 10.5 µM; in the data set on MCF-7 cells (setting [4]), 9.69 µM; in the data set on HeLa cells it was 12.3 µM.

On to `COc1cccc(/C=N/NC(=O)c2ccc(N3N=C(c4cccc(C)c4)CC3c3ccc4ccccc4c3)cc2)c1` (stereo not drawn) [Compound H3, (E)-N′-(3-Methoxybenzylidene)-4-(5-(naphthalen-2-yl)-3-(m-tolyl)-4,5-dihydro-1H-pyrazol-1-yl)benzo-hydrazide], for which the CC50 in data set [1] was determined as 92.3 µM. Also, the 50% inhibitory concentration (IC50) turned out to be 3.02 µM in the data set on A549 cells; 3.54 µM with HepG2 cells; 2.89 µM with MCF-7 cells (setting [4]); 2.12 µM in data set [2] (setting [5]); 2.45 µM in the data set on HeLa cells.

On to “(E)-N′-(3-Methoxybenzylidene)-4-(3-(4-methoxyphenyl)-5-(naphthalen-2-yl)-4,5-dihydro-1H-pyrazol-1-yl)-benzohydrazide [Compound H6]”, for which the CC50 in data set [1] worked out at 81.8 µM. Further, the half-inhibitory concentration (IC50) in the data set on A549 cells is 8.32 µM; in the data set on HepG2 cells it was 11.5 µM; with MCF-7 cells (setting [4]), 10.2 µM; in the data set on HeLa cells it was 13.2 µM.

Consider “(E)-4-(3-(4-Ethylphenyl)-5-(naphthalen-2-yl)-4,5-dihydro-1H-pyrazol-1-yl)-N′-(4-methoxybenzylidene)-benzohydrazide [Compound H21]”, for which the CC50 in data set [1] was determined as 82.6 µM. Besides, the IC50 with A549 cells was found to be 4.54 µM; in the data set on HepG2 cells, 5.06 µM; with MCF-7 cells (setting [4]) it was 6.33 µM; in the data set with HeLa cells, 7.93 µM.

Molecule `COc1ccc(/C=N/NC(=O)c2ccc(N3N=C(c4ccc(F)cc4)CC3c3ccc4ccccc4c3)cc2)cc1` (stereo not drawn) [Compound H27, (E)-4-(3-(4-Fluorophenyl)-5-(naphthalen-2-yl)-4,5-dihydro-1H-pyrazol-1-yl)-N'-(4-methoxybenzylidene)-benzohydrazide] returned a melting point of 236 to 238 °C. In addition, the CC50 at 24 h in data set [3] came out at 89.4 µM. The 50% inhibitory concentration (IC50) with A549 cells (Homo sapiens) was 44.1 µM. Further, the concentration for half-maximal inhibition (IC50) in the data set on HepG2 cells (Homo sapiens) was 62.9 µM. Further, the IC50 with MCF-7 cells (setting [6]) turned out to be 59 µM. The molecule also registered a concentration for half-maximal inhibition (IC50) in data set [2] of 13.8 µM. For the same molecule, the IC50 with HeLa cells (Homo sapiens) came out at 54.2 µM.

The molecule `COc1ccc(/C=N/NC(=O)c2ccc(N3N=C(c4ccccc4F)CC3c3ccc4ccccc4c3)cc2)cc1` (stereo not drawn) [Compound H25, (E)-4-(3-(2-Fluorophenyl)-5-(naphthalen-2-yl)-4,5-dihydro-1H-pyrazol-1-yl)-N′-(4-methoxybenzylidene)-benzohydrazide] displayed a melting point of 244 to 246 °C. Moreover, in data set [3], the CC50 at 24 h was 85.6 µM. Moreover, the IC50 in the data set on A549 cells (Homo sapiens) was found to be 48.6 µM. Besides, the IC50 in the data set on HepG2 cells (Homo sapiens) came to 71.1 µM. The IC50 with MCF-7 cells (setting [6]) turned out to be 65.5 µM. In addition, in data set [2], inhibition was half-maximal at 15.3 µM (IC50). The IC50 in the data set on HeLa cells (Homo sapiens) was determined as 61.9 µM.

`COc1cccc(/C=N/NC(=O)c2ccc(N3N=C(c4ccccc4F)CC3c3ccc4ccccc4c3)cc2)c1` (stereo not drawn) [Compound H9, (E)-4-(3-(2-Fluorophenyl)-5-(naphthalen-2-yl)-4,5-dihydro-1H-pyrazol-1-yl)-N′-(3-methoxybenzylidene)-benzohydrazide] returned a melting point of 235 to 237 °C. The CC50 at 24 h in data set [3] was 83.4 µM. The 50% inhibitory concentration (IC50) in the data set on A549 cells (Homo sapiens) was 50.6 µM. The concentration for half-maximal inhibition (IC50) in the data set on HepG2 cells (Homo sapiens) amounted to 76.5 µM. In the data set on MCF-7 cells (setting [6]), the IC50 was determined as 70.4 µM. Moreover, the IC50 in data set [2] came to 16.2 µM. In addition, in the data set on HeLa cells (Homo sapiens), the IC50 was determined as 63.8 µM.

Consider `CCOc1ccc(C2=NN(c3ccc(C(=O)N/N=C/c4cccc(OC)c4)cc3)C(c3ccc4ccccc4c3)C2)cc1` (stereo not drawn) [Compound H8, (E)-4-(3-(4-Ethoxyphenyl)-5-(naphthalen-2-yl)-4,5-dihydro-1H-pyrazol-1-yl)-N′-(3-methoxybenzylidene)-benzohydrazide], for which the melting point lay within 233 to 235 °C. In data set [3], this molecule showed a CC50 at 24 h of 79.7 µM. Also, the IC50 in the data set on A549 cells (Homo sapiens) amounted to 10.7 µM. Besides, the concentration for half-maximal inhibition (IC50) in the data set with HepG2 cells (Homo sapiens) is 19.8 µM. Besides, the IC50 with MCF-7 cells (setting [6]) was 15.9 µM. For the same molecule, in data set [2], the half-maximal inhibitory concentration (IC50) is 7.2 µM. In addition, in the data set with HeLa cells (Homo sapiens), the half-maximal inhibitory concentration (IC50) is 17.1 µM.

`COc1cccc(/C=N/NC(=O)c2ccc(N3N=C(c4cc(OC)c(OC)c(OC)c4)CC3c3ccc4ccccc4c3)cc2)c1` (stereo not drawn) [Compound H7, (E)-N′-(3-Methoxybenzylidene)-4-(5-(naphthalen-2-yl)-3-(3,4,5-trimethoxyphenyl)-4,5-dihydro-1H-pyrazol-1-yl)benzohydrazide] showed a melting point of 230 to 232 °C. In data set [3], this molecule registered a CC50 at 24 h of 92.9 µM. For the same molecule, the 50% inhibitory concentration (IC50) in the data set with A549 cells (Homo sapiens) came to 78.3 µM. Further, in the data set with HepG2 cells (Homo sapiens), the IC50 was above 100 µM. In addition, in the data set on MCF-7 cells (setting [6]), the IC50 was found to be 95.3 µM. In data set [2], this molecule registered a concentration for half-maximal inhibition (IC50) of 26.9 µM. Besides, the half-maximal inhibitory concentration (IC50) with HeLa cells (Homo sapiens) is above 100 µM.

Consider `COc1cccc(/C=N/NC(=O)c2ccc(N3N=C(c4cc(F)cc(F)c4)CC3c3ccc4ccccc4c3)cc2)c1` (stereo not drawn) [Compound H12, (E)-4-(3-(3,5-Difluorophenyl)-5-(naphthalen-2-yl)-4,5-dihydro-1H-pyrazol-1-yl)-N′-(3-methoxybenzylidene) benzohydrazide], for which the melting point lay in the range of 225 to 227 °C. Also, the CC50 at 24 h in data set [3] came out at 80.2 µM. For the same molecule, in the data set with A549 cells (Homo sapiens), the IC50 was 41.5 µM. Further, in the data set on HepG2 cells (Homo sapiens), the IC50 is 52.3 µM. In addition, in the data set with MCF-7 cells (setting [6]), the 50% inhibitory concentration (IC50) turned out to be 55.6 µM. The half-inhibitory concentration (IC50) in data set [2] stood at 12.8 µM. The half-maximal inhibitory concentration (IC50) in the data set with HeLa cells (Homo sapiens) amounted to 50.3 µM.

With `COc1cccc(/C=N/NC(=O)c2ccc(N3N=C(c4ccc(Cl)c(Cl)c4)CC3c3ccc4ccccc4c3)cc2)c1` (stereo not drawn) [Compound H15, (E)-4-(3-(3,4-Dichlorophenyl)-5-(naphthalen-2-yl)-4,5-dihydro-1H-pyrazol-1-yl)-N′-(3-methoxy-benzylidene)benzohydrazide], the melting point lay in the range of 234 to 236 °C. Further, the CC50 at 24 h in data set [3] was found to be 88.2 µM. For the same molecule, the half-maximal inhibitory concentration (IC50) in the data set with A549 cells (Homo sapiens) amounted to 26.6 µM. Moreover, in the data set with HepG2 cells (Homo sapiens), the IC50 was determined as 38.9 µM. For the same molecule, the IC50 with MCF-7 cells (setting [6]) turned out to be 35.2 µM. The same molecule had an IC50 in data set [2] of 9.87 µM. The half-inhibitory concentration (IC50) in the data set on HeLa cells (Homo sapiens) was 33.6 µM.
